Test results from ChEMBL document CHEMBL1201862, “PubChem BioAssay data set” (2004).
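Protocol summary: plate cells (96-well), add compound at 5 concentrations, incubate 48 h, interpolate endpoints linearly. GI50 is the concentration that inhibits growth by half.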 Activity calls are given as the source filed them. Cut-off read from the data, not from the text of the source: active = GI50 up to about 1.1 µM and inactive = higher.

Tests used:
Assay in all cases: NCI anticancer screen, dose series, 48 h
TK-10 = system: TK-10
CAKI-1 = system: CAKI-1
OVCAR-3 = system: OVCAR-3
T47D = system: T47D
U-251 = system: U-251
M14 = system: M14
786-0 = system: 786-0
HCC 2998 = system: HCC 2998
SNB-19 = system: SNB-19
OVCAR-5 = system: OVCAR-5
IGROV-1 = system: IGROV-1
HOP-92 = system: HOP-92
MDA-MB-435 = system: MDA-MB-435
CCRF-CEM = system: CCRF-CEM
UACC-257 = system: UACC-257
A549 = system: A549
NCI-H23 = system: NCI-H23
UACC-62 = system: UACC-62
SF-268 = system: SF-268
DU-145 = system: DU-145

Structure (SMILES)	GI50 (TK-10)	GI50 (CAKI-1)	GI50 (OVCAR-3)	GI50 (T47D)	GI50 (U-251)	GI50 (M14)	GI50 (786-0)	GI50 (HCC 2998)	GI50 (SNB-19)	GI50 (OVCAR-5)	GI50 (IGROV-1)	GI50 (HOP-92)	GI50 (MDA-MB-435)	GI50 (CCRF-CEM)	GI50 (UACC-257)	GI50 (A549)	GI50 (NCI-H23)	GI50 (UACC-62)	GI50 (SF-268)	GI50 (DU-145)
Cc1[nH]c2ncn(N)c(=N)c2c1Cc1ccccc1	> 100 µM (inactive)	> 100 µM (inactive)	> 100 µM (inactive)	4.35 µM (inactive)	> 100 µM (inactive)	> 100 µM (inactive)	> 100 µM (inactive)	> 100 µM (inactive)	> 100 µM (inactive)	> 100 µM (inactive)	80.4 µM (inactive)	6.7 µM (inactive)	34.6 µM (inactive)	> 100 µM (inactive)	> 100 µM (inactive)	58.3 µM (inactive)	> 100 µM (inactive)	58.1 µM (inactive)	–	–
COc1cc(OC)cc(Oc2nc3c(N)cc(C(F)(F)F)cc3nc2-c2ccccc2)c1	60.5 µM (inactive)	26.9 µM (inactive)	–	3.14 µM (inactive)	44.8 µM (inactive)	49.3 µM (inactive)	55.1 µM (inactive)	24.3 µM (inactive)	95.7 µM (inactive)	–	21.8 µM (inactive)	> 100 µM (inactive)	11.4 µM (inactive)	12.8 µM (inactive)	79.3 µM (inactive)	–	92.7 µM (inactive)	> 100 µM (inactive)	74.8 µM (inactive)	–
CC1(C)C(=O)/C=C\C(=O)C(C)(C)C(=O)/C=C\C(=O)C(C)(C)C(=O)/C=C\C(=O)C(C)(C)C(=O)/C=C\C1=O	> 55.2 µM (inactive)	12.6 µM (inactive)	23.8 µM (inactive)	30.8 µM (inactive)	27.7 µM (inactive)	19.4 µM (inactive)	24.1 µM (inactive)	–	52.5 µM (inactive)	41.1 µM (inactive)	34.4 µM (inactive)	12.7 µM (inactive)	31.2 µM (inactive)	3.51 µM (inactive)	23.3 µM (inactive)	> 70.8 µM (inactive)	21.4 µM (inactive)	21.9 µM (inactive)	> 45.9 µM (inactive)	> 100 µM (inactive)
COc1ccc(/N=C2\S/C(=N\C(=N\c3ccccc3)SCc3ccccc3)N(c3ccccc3)\C2=N/c2ccc(OC)cc2)cc1	> 100 µM (inactive)	–	–	> 100 µM (inactive)	–	72.1 µM (inactive)	> 100 µM (inactive)	> 100 µM (inactive)	> 100 µM (inactive)	–	> 100 µM (inactive)	> 100 µM (inactive)	–	> 100 µM (inactive)	> 100 µM (inactive)	> 100 µM (inactive)	> 100 µM (inactive)	> 100 µM (inactive)	–	–
COc1ccc(NCC(=O)Nn2c(C)nc3ccc(S(=O)(=O)Nc4ccc(OC)cc4)cc3c2=O)cc1	> 100 µM (inactive)	> 100 µM (inactive)	> 100 µM (inactive)	–	> 100 µM (inactive)	> 100 µM (inactive)	> 100 µM (inactive)	> 100 µM (inactive)	> 100 µM (inactive)	> 100 µM (inactive)	69.7 µM (inactive)	> 100 µM (inactive)	> 100 µM (inactive)	> 100 µM (inactive)	> 100 µM (inactive)	> 100 µM (inactive)	> 100 µM (inactive)	> 100 µM (inactive)	> 100 µM (inactive)	> 100 µM (inactive)
O=C(O)C(Cc1ccc2c(c1)CCC2)(Cc1ccc2c(c1)CCC2)C(=O)O	> 100 µM (inactive)	–	> 100 µM (inactive)	> 100 µM (inactive)	> 100 µM (inactive)	> 100 µM (inactive)	> 100 µM (inactive)	> 100 µM (inactive)	> 100 µM (inactive)	> 100 µM (inactive)	> 100 µM (inactive)	–	> 100 µM (inactive)	> 100 µM (inactive)	> 100 µM (inactive)	> 100 µM (inactive)	> 100 µM (inactive)	> 100 µM (inactive)	> 100 µM (inactive)	> 100 µM (inactive)
NC(=S)Nc1ccc(S(=O)(=O)Nc2ccc(S(N)(=O)=O)cc2)cc1	> 100 µM (inactive)	> 100 µM (inactive)	> 100 µM (inactive)	> 100 µM (inactive)	> 100 µM (inactive)	> 100 µM (inactive)	> 100 µM (inactive)	–	> 100 µM (inactive)	> 100 µM (inactive)	> 100 µM (inactive)	> 100 µM (inactive)	> 100 µM (inactive)	> 100 µM (inactive)	> 100 µM (inactive)	> 100 µM (inactive)	> 100 µM (inactive)	> 100 µM (inactive)	–	> 100 µM (inactive)
CN(/N=C/c1cccc2cccnc12)c1ccc(Cl)cc1[N+](=O)[O-]	> 100 µM (inactive)	45.2 µM (inactive)	> 100 µM (inactive)	–	> 100 µM (inactive)	> 100 µM (inactive)	> 100 µM (inactive)	> 100 µM (inactive)	> 100 µM (inactive)	> 100 µM (inactive)	> 100 µM (inactive)	31.7 µM (inactive)	> 100 µM (inactive)	> 100 µM (inactive)	> 100 µM (inactive)	> 100 µM (inactive)	> 100 µM (inactive)	> 100 µM (inactive)	> 100 µM (inactive)	> 100 µM (inactive)
O=c1[nH]c(=O)n2n1C1C=CC2CC1	> 100 µM (inactive)	> 100 µM (inactive)	> 100 µM (inactive)	> 100 µM (inactive)	> 100 µM (inactive)	> 100 µM (inactive)	> 100 µM (inactive)	–	> 100 µM (inactive)	> 100 µM (inactive)	> 100 µM (inactive)	> 100 µM (inactive)	> 100 µM (inactive)	> 100 µM (inactive)	> 100 µM (inactive)	> 100 µM (inactive)	> 100 µM (inactive)	> 100 µM (inactive)	> 100 µM (inactive)	> 100 µM (inactive)
Cc1ccc(C)n1-c1ccccc1C1C=Cn2c(=O)oc3c(OC(C)C)c(OC(C)C)c(O)c1c32 (configuration not stated)	55.2 µM (inactive)	22 µM (inactive)	27.5 µM (inactive)	–	25.8 µM (inactive)	22.9 µM (inactive)	37.3 µM (inactive)	8.57 µM (inactive)	> 100 µM (inactive)	> 100 µM (inactive)	54 µM (inactive)	24.9 µM (inactive)	6.1 µM (inactive)	18 µM (inactive)	17.1 µM (inactive)	16.5 µM (inactive)	13.3 µM (inactive)	22.8 µM (inactive)	43.8 µM (inactive)	90.4 µM (inactive)
S=C1Nc2cnc3ccccc3c2SC1c1ccccc1 (configuration not stated)	> 100 µM (inactive)	> 100 µM (inactive)	> 100 µM (inactive)	> 100 µM (inactive)	> 100 µM (inactive)	> 100 µM (inactive)	> 100 µM (inactive)	–	> 100 µM (inactive)	> 100 µM (inactive)	> 100 µM (inactive)	–	83.4 µM (inactive)	–	> 100 µM (inactive)	> 100 µM (inactive)	96.4 µM (inactive)	> 100 µM (inactive)	> 100 µM (inactive)	> 100 µM (inactive)
CN(C(=O)C1CCCCCC1=O)c1ccccc1Cl (configuration not stated)	> 100 µM (inactive)	> 100 µM (inactive)	> 100 µM (inactive)	> 100 µM (inactive)	> 100 µM (inactive)	> 100 µM (inactive)	> 100 µM (inactive)	–	> 100 µM (inactive)	> 100 µM (inactive)	> 100 µM (inactive)	> 100 µM (inactive)	> 100 µM (inactive)	–	> 100 µM (inactive)	> 100 µM (inactive)	> 100 µM (inactive)	–	> 100 µM (inactive)	> 100 µM (inactive)
COC(=O)c1c(C(=O)OC)c2ccccn2c1-c1cc(OC)c(Br)c(=O)o1	> 100 µM (inactive)	–	> 100 µM (inactive)	> 100 µM (inactive)	–	> 100 µM (inactive)	> 100 µM (inactive)	> 100 µM (inactive)	> 100 µM (inactive)	> 100 µM (inactive)	> 100 µM (inactive)	–	> 100 µM (inactive)	> 100 µM (inactive)	> 100 µM (inactive)	> 100 µM (inactive)	> 100 µM (inactive)	> 100 µM (inactive)	> 100 µM (inactive)	> 100 µM (inactive)
O=S(=O)(O)c1ccc(NN(c2c(O)ccc3ccccc23)S(=O)(=O)O)cc1	> 100 µM (inactive)	> 100 µM (inactive)	> 100 µM (inactive)	> 100 µM (inactive)	> 100 µM (inactive)	> 100 µM (inactive)	> 100 µM (inactive)	> 100 µM (inactive)	> 100 µM (inactive)	> 100 µM (inactive)	> 100 µM (inactive)	–	> 100 µM (inactive)	> 100 µM (inactive)	> 100 µM (inactive)	> 100 µM (inactive)	> 100 µM (inactive)	> 100 µM (inactive)	> 100 µM (inactive)	> 100 µM (inactive)
CCCC(O)[C@@]1(CC)CC(C)C(O)(C2(C)C[C@H](C)[C@@H](C(CC)C(=O)C(C)[C@@H](O)[C@H](C)C3OC(O)(C(CC)C(=O)O)[C@@H](C)C(O)C3CC)O2)O1 (some centres not stated)	0.527 µM (active)	0.486 µM (active)	0.0733 µM (active)	–	0.184 µM (active)	0.557 µM (active)	0.414 µM (active)	0.0897 µM (active)	0.279 µM (active)	1.51 µM (inactive)	1.24 µM (inactive)	0.3 µM (active)	0.151 µM (active)	0.0324 µM (active)	0.138 µM (active)	0.123 µM (active)	0.129 µM (active)	0.923 µM (active)	0.284 µM (active)	0.0885 µM (active)
